This is an account of results in PubChem BioAssay (NCI).

Common to all, as to assay: NCI anticancer screen, dose series, 48 h
The subject of experiment [1] is A498 renal.
Experiment [2] concerns ACHN renal.
Experiment [3] has as its system COLO 205 colon.
In experiment [4] the test system is HL-60(TB) leukemia.
The test system of experiment [5] is HOP-92 NSCLC.
For experiment [6], the system named is M14 melanoma.
Experiment [7] has as its system MDA-N.
Experiment [8] has as its system NCI-H460 lung.
The test system of experiment [9] is T-47D breast.
Experiment [10] relates to MALME-3M melanoma.

Values joined by “and” are separate entries in the source; they are usually repeats but may differ in a detail not shown here. Equal entries are not always repeated.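 48-hour exposure; five concentrations; linearly interpolated endpoints. GI50 = concentration required for 50% inhibition of growth. At the TGI there is no net growth.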

Consider `CC1(C)OC[C@@H](/C=C\CCO[Si](c2ccccc2)(c2ccccc2)C(C)(C)C)N1C(=O)c1ccccc1`, for which the TGI in experiment [1] is 44.8 µM; in [2], above 100 µM; in experiment [3] it was 21.9 µM; in experiment [4], 14.6 µM; in experiment [5] it was 52.7 µM; in [6] it was 32.8 µM. Besides, the TGI was above 100 µM in experiment [7], 17.3 µM in experiment [8] and above 100 µM in [9].

Take `Oc1ccc2ccccc2c1-c1nnc(CCCCCCCCc2nnc(-c3c(O)ccc4ccccc34)o2)o1`: the GI50 in experiment [1] was 14.2 µM; in experiment [2], 1.28 µM; in experiment [3], 5.99 µM; in experiment [6], 4.77 µM; in experiment [10], 8.98 µM; in experiment [7] it was 2.67 µM. Moreover, the GI50 in [8] was 0.715 µM; in experiment [9] it was 1.67 µM. Also, the TGI is 25 µM and 41 µM in [1]; 25 µM and > 55.3 µM in experiment [2]; 15 µM and > 44.9 µM in experiment [3]; 2.5 µM in experiment [4]; above 79 µM in [5]; 25 µM and 55.1 µM in [6]. Further, the TGI was 8.33 µM and 58.2 µM in experiment [10]; 25 µM and > 47.2 µM in [8]; 25 µM and > 100 µM in experiment [9].

As to `N#Cc1c(=O)c2cccnc2n2c1[nH]c1ccccc12`, the TGI in experiment [1] was above 100 µM; in experiment [2] it was above 100 µM; in experiment [3], above 100 µM; in [4], above 100 µM; in experiment [5], 68.4 µM; in experiment [6], above 100 µM. Further, the TGI in [7], in [8] and in experiment [9] was above 100 µM each time.

`CCCCCCCCCCCCCCCCP(=O)(O)OP(=O)(O)OCC1OC(n2ccc(N)nc2=O)C(O)C1O` (configuration not stated): the TGI is above 47.9 µM in experiment [1]; > 100 µM and 37.1 µM in experiment [2]; above 100 µM in experiment [3]; above 100 µM in experiment [4]; > 100 µM and 67.4 µM in experiment [5]; above 100 µM in experiment [6]. Further, the TGI is > 100 µM and 50.3 µM in experiment [10]; above 100 µM in experiment [7]; above 100 µM in [8]; above 100 µM in [9]. Also, the GI50 was 54.7 µM and 19 µM in experiment [3]; 65.3 µM and 17.6 µM in experiment [5]; > 100 µM and 14 µM in experiment [10]; > 100 µM and 40.4 µM in experiment [7].

Take `O=C1CSC2(CC(/C=C/C=C/c3ccccc3)=NN2c2cccc(S(=O)(=O)O)c2)N1c1nc2ccccc2s1` (configuration not stated): the TGI in experiment [1], in [2], in experiment [3], in [4], in experiment [5] and in experiment [6] was above 100 µM each time. Moreover, the TGI in experiment [7], in [8] and in experiment [9] was above 100 µM throughout.

Regarding `C/C(=N\N=C(N)N)c1c(C(=O)OCCCCCCOC(=O)c2nc3sccn3c2/C(C)=N/N=C(N)N)nc2sccn12`, the TGI in experiment [1], in [2], in [3], in experiment [4], in [5] and in [6] was above 100 µM throughout. The TGI was above 100 µM in experiment [10], above 100 µM in experiment [7], above 100 µM in experiment [8] and 42.5 µM in experiment [9].

With `O=C1/C(=C/c2ccccc2S)N=C(c2ccccc2)N1c1ccc2c(c1)Sc1cc(N3C(=O)/C(=C/c4ccccc4S)N=C3c3ccccc3)ccc1N2`, the TGI was 35.4 µM in experiment [1]; 33.5 µM in experiment [2]; above 100 µM in experiment [3]; 34.5 µM in [5]; 35 µM in [6]; 51.3 µM in experiment [7]. The TGI in [8] was 63.7 µM; in [9] it was 51.3 µM.

Turning to `CCCCC[C@H](O)[C@H](C)C=C1SCCCS1`, the TGI in [1], in experiment [2], in [3], in experiment [4], in [5] and in experiment [6] was above 100 µM in each case. The TGI in experiment [10], in experiment [7] and in experiment [9] was above 100 µM in each case.

For `CN(C)c1ccc(-c2nc(-c3cc4c(ccc5ccccc54)oc3=O)cs2)cc1`, the TGI in experiment [2], in experiment [3], in [4], in experiment [5], in experiment [6] and in experiment [10] was above 100 µM throughout. The TGI in experiment [7], in experiment [8] and in [9] was above 100 µM throughout.

For the compound `N#Cc1c(N)c(-c2ccc(Cl)cc2)c(F)c2ccccc12`, the TGI was above 100 µM in experiment [1]; above 100 µM in experiment [2]; above 100 µM in experiment [3]; 59.4 µM in [5]; above 100 µM in experiment [6]; above 100 µM in experiment [10]. In addition, the TGI in experiment [7], in experiment [8] and in experiment [9] was above 100 µM in each case.

As to `O=C(C[C@@H]1NCCC[C@H]1O)Cn1cnc2cc(Br)c(Cl)cc2c1=O`, the TGI in experiment [1] came out at 0.316 µM; in [2] it was 1.21 µM; in [3], 0.0391 µM; in experiment [5], 0.11 µM; in experiment [6] it was 0.0821 µM; in experiment [10] it was 0.144 µM. Besides, the TGI was 0.0881 µM in [7], above 100 µM in experiment [8] and 0.082 µM in experiment [9].

`CC(C)=CC(=O)O[C@@H]1CC(C)(C)CC2C3=CCC4[C@]56CC[C@](O)(OC5)C(C)(C)C6CC[C@@]4(C)C3(C)CC[C@]21C(=O)O` (some centres not stated): the TGI was above 100 µM in experiment [1]; 82.8 µM in experiment [2]; 50.4 µM in [3]; above 100 µM in experiment [4]; above 100 µM in experiment [6]; above 100 µM in [10]. Besides, the TGI in [7], in [8] and in experiment [9] was above 100 µM each time.

Turning to `CC1(C)CC(=O)C(/C=N/c2nc(-c3ccc(Br)cc3)cs2)=C(O)C1`, the TGI in [2] is above 100 µM; in experiment [3], 99.2 µM; in [4] it was above 100 µM; in [5], above 100 µM; in [6] it was 48.4 µM; in experiment [7], above 100 µM. For the same compound, the TGI in experiment [8] and in experiment [9] was above 100 µM in each case.

For the compound `CCOC(=O)/C=C1\Nc2ccccc2C12CCc1c([nH]c3ccccc13)C2C(=O)OCC` (configuration not stated), the TGI in [1] was above 100 µM; in experiment [2] it was above 100 µM; in experiment [3] it was 30.2 µM; in experiment [4], above 100 µM; in [6], above 100 µM; in experiment [10] it was above 100 µM. Moreover, the TGI in [7] is 81 µM; in experiment [8], above 100 µM; in experiment [9] it was above 100 µM.

Take `COc1ccc(CNc2nc(NCc3ccc(OC)cc3)nc(NC3CCCCC3)n2)cc1`: the TGI in experiment [1] is above 100 µM; in experiment [2], above 100 µM; in experiment [3], 5.35 µM; in [4], above 100 µM; in [5], above 100 µM; in experiment [10] it was 1.61 µM. Also, the TGI in experiment [7] is above 100 µM; in experiment [8], 7.78 µM; in [9], above 100 µM.

On to `COc1cc(S(=O)(=O)Nc2nc(-c3ccc(N4C(=O)/C(=C/c5ccccc5)N=C4c4ccccc4)cc3)cs2)ccc1Cl`, for which the TGI in experiment [1] is above 100 µM; in experiment [2], above 100 µM; in experiment [3] it was above 100 µM; in experiment [5] it was above 100 µM; in experiment [6] it was above 100 µM; in experiment [10], 83.6 µM. Further, the TGI in [7], in experiment [8] and in experiment [9] was above 100 µM each time.

On to `O=C(Cn1c2ccc(Br)cc2c2nc3ccccc3nc21)NC1CCCCC1`, for which the TGI in experiment [1], in [2], in experiment [3], in experiment [5], in experiment [6] and in experiment [10] was above 100 µM each time. In addition, the TGI in experiment [7], in [8] and in experiment [9] was above 100 µM throughout.

Consider `c1ccc2c(c1)CC1c3[nH]c4ccccc4c3CCN21` (configuration not stated), for which the TGI in experiment [2], in [3], in experiment [4], in experiment [5], in [6] and in experiment [10] was above 10 µM throughout. In addition, the TGI in [7], in [8] and in experiment [9] was above 10 µM throughout.

`CC1=NNC(N)=N/C1=C/C(Sc1ccc(Cl)cc1)c1cccs1` (configuration not stated): the TGI in experiment [1] was 37.1 µM; in [2], 42.5 µM; in [3], 46.2 µM; in [5] it was above 100 µM; in [6], 28 µM; in experiment [10], 27.1 µM. Further, the figures for the TGI in [7], in experiment [8] and in experiment [9] were 85 µM, 30.5 µM and 62.2 µM, respectively.

For `COc1cc(C(=O)Nc2nnc(S(N)(=O)=O)s2)cc(OC)c1OC`, the TGI in experiment [2], in [3], in experiment [4], in [5], in experiment [6] and in experiment [10] was above 100 µM throughout. The TGI in experiment [7], in experiment [8] and in experiment [9] was above 100 µM each time.

In the case of `CN(C)c1ccc(C(=NNC(=O)c2cc3ccccc3[nH]2)c2ccc(N(C)C)cc2)cc1`, the TGI in experiment [1] is 26.3 µM; in [2], 24.9 µM; in experiment [3], above 20.7 µM; in [4], 0.678 µM; in experiment [5] it was 31.8 µM; in experiment [6] it was 29 µM. The results for the TGI in experiment [7], in experiment [8] and in [9] were 1.49 µM, above 100 µM and above 100 µM, respectively.

On to `CC(=O)Oc1ccc2cc(Oc3ccc(Cl)cc3)c(=O)oc2c1`, for which the TGI in experiment [1], in experiment [2], in experiment [4], in experiment [5], in experiment [6] and in experiment [10] was above 100 µM in each case. Also, the TGI in experiment [7] was 78.8 µM; in [8], above 100 µM; in experiment [9], above 100 µM.

Take `NC(N)=N/N=C(\c1ccc(Cl)cc1)C1CC1`: the TGI in experiment [1] was determined as 32.3 µM; in experiment [2], 57.7 µM; in experiment [3], 31 µM; in [5], 62.6 µM; in experiment [6], 30 µM; in experiment [10], 29 µM. Also, the results for the TGI in experiment [7], in [8] and in experiment [9] were 30.8 µM, 29.9 µM and 64.4 µM, respectively.

Consider `c1ccc2c3c(ccc2c1)CSCc1ccc2ccccc2c1-3`, for which the TGI in experiment [1], in experiment [2], in experiment [3], in [5], in experiment [6] and in experiment [10] was above 100 µM in each case. For the same compound, the TGI in experiment [7] and in experiment [9] was above 100 µM each time.

For the compound `CCCCCCCCCCCCOC1C(COCCN2CCCC2)OC2OC(C)(C)OC21` (configuration not stated), the TGI in experiment [1] came out at 27.9 µM; in experiment [2] it was 11.2 µM; in experiment [3], 3.22 µM; in experiment [5], 2.72 µM; in [6], 3.25 µM; in experiment [10], 3.35 µM. Also, the results for the TGI in experiment [7] and in experiment [9] were 2.76 µM and 4.11 µM, respectively.

For `Cc1ncc([N+](=O)[O-])n1CCN=[N+]=[N-]`, the TGI in [1], in experiment [2], in experiment [3], in experiment [5], in experiment [6] and in experiment [10] was above 100 µM throughout. Moreover, the TGI in [7], in experiment [8] and in experiment [9] was above 100 µM each time.

Consider `Oc1ccc(-c2c3c(nc4c2CCc2ccc(Br)cc2-4)-c2cc(Br)ccc2CC3)cc1`, for which the TGI was 48.6 µM in [1]; 45.2 µM in [2]; 32.4 µM in [3]; 31.1 µM in [5]; 55.1 µM in experiment [6]; 50.4 µM in experiment [10]. Besides, the TGI was found to be 40.7 µM in experiment [7], 53.2 µM in experiment [8] and 42.6 µM in experiment [9].

On to `Cc1cnc(Cl)nc1C(C#N)c1nc2ccccc2n1C` (configuration not stated), for which the TGI in experiment [1], in experiment [2], in experiment [3], in experiment [5], in [6] and in experiment [10] was above 100 µM in each case. Also, the TGI in [7], in experiment [8] and in experiment [9] was above 100 µM in each case.
